As usually defined, the IC50 is the concentration that inhibits the measured activity by half.

Where two headings read alike, the source gives them in different places.

Assay [1] has as its system HepG2. The arrangement: method as in earlier work. The following applies: HepG2 cell line; read-out: IC50, antiproliferative activity; cited from earlier work.
Assay [2] relates to MCF-7. The following applies: read-out: IC50, antiproliferative activity, cited from earlier work.
For assay [3], the system named is PC3. The arrangement: method as in earlier work. The following applies: PC3 cell line; read-out: IC50, antiproliferative activity; cited from earlier work.
Assay [4] has as its system various cell lines. Details: method as in PMID 26890117. The following applies: cited from earlier work.
Assay [5] has as its system THP-1 cells. Details: method as in PMID 35525212. The following applies: read-out: IC50, antiproliferative activity; cited from earlier work.
Assay [6] has as its system H3K4me1/2. The following applies: cited from earlier work.
Assay [7] relates to ACHN cells. Details: method as in PMID 33527838. The following applies: cited from earlier work.
The test system of assay [8] is diffuse large B-cell lymphoma cells. Details: method as in PMID 26002965. The following applies: cited from earlier work.
The target in assay [9] is T1, LSD1 (Homo sapiens, UniProt O60341). The assay can be described thus: LSD1 screening assay kit (enzymatic activity). The class given is biochemical. Details: purchased Cayman Chemical (Ann Arbor, MI). The following applies: fluorescence, read-out: IC50 against LSD1. The procedure: After the incubation for 30 min at 37 °C, a mixture of horseradish peroxidase solution (20 μl) and fluorometric substrate solution (10 μl) was added to each well. Then, the 96-well plate was incubated for 15 min at 37 °C. Finally, the fluorescence of each well in the 96-well plate was measured at an emission wavelength of 590 nm and an excitation wavelength of 530 nm by a fluorimeter (Agilent Technologies Inc., Palo Alto, CA). Seclidemstat, a famous LSD1 inhibitor, was used as the control drug in this assay.

Assay [10] has as its system HepG2 cells. The assay can be described thus: Xenograft study, HepG2 cells in nude mice. It counts as in vivo, BALB/c nude mice. The following applies: 10 mg/kg by gavage every day for 21 days, nude mice bearing HepG2 cells. The procedure:
Tumorigenesis in nude mice could stimulate the growth process of human tumours in the body, and could be used to develop and evaluate the effectiveness and safety of anti-cancer candidates. Therefore, xenograft studies in nude mice were performed to evaluate anticancer effects of compound 14. Animals were treated according to the protocols established by the ethics committee of The Fourth Clinical College of Xinxiang Medical University. The in vivo experiments were carried out in accordance with the approved guidelines and approved by the ethics committee of The Fourth Clinical College of Xinxiang Medical University. The number of ethics approvals is XMU-2024–01-03. All authors have adhered to the ARRIVE guidelines (https://arriveguidelines.org/). BALB/c nude mice were purchased from Beijing Huafukang Biotechnology Co., LTD (Beijing, China), and fifteen mice were used in this study (aged 6–7 weeks and weighing 20–30 g). Before the animal experiments, all nude mice were given a week to adjust to the clean, hygienic and specific-pathogen-free environment. All nude mice were taken care of instainless steel cages with a constant temperature of 60% humidity, 25 °C and a 12/12 light/dark cycle. Nude mice were fed with refreshing water and nourishing food everyday.
Then, nude mice were anaesthetised with 2% isoflurane and 0.3 l/min of oxygen by the small animal anaesthesia machine (Beijing Yi Zejia Technology Co., LTD, Beijing, China). 3 × 10^5 human liver cancer HepG2 cells were subcutaneously injected in the right armpit of mice. Until the volume of tumours reached 60–100 mm^3, all mice were randomly divided into three groups and each group had five nude mice. An amount of 60 mg/kg of compound 14, 10 mg/kg of seclidemstat and water as the control group were given by gavage every day for 21 days. Weight of mice and tumour volume were measured every 3 d. All nude mice in this xenograft studies were performed euthanizing procedures using a carbon dioxide euthanasia chamber (Shanghai Yuyan Instruments Co., Ltd, Shanghai, China). The flow rate of carbon dioxide was adjusted at 20% of the volume of the euthanasia chamber per minute. Once nude mice were unconscious, the flow rate was increased to 100% of the euthanasia chamber volume per minute. Death was confirmed by immobility, non-breathing and pupil enlargement. Tumours form BALB/c nude mice were isolated and weighed.

Assay [11] deals with ovarian cancer cells. Details: method as in PMID 31264855. The following applies: cited from earlier work.
Assay [12] relates to NB cells. Details: method as in PMID 36223680. The following applies: cited from earlier work.
For assay [13], the system named is HepG2 cells. The assay can be described thus: CCK8 assay, HepG2 liver cancer cells. The following applies: Homo sapiens, CCK8, control drug, read-out: IC50, antiproliferative activity. It counts as cell-based. The procedure:
(§1) C42B, PC3, Caco-2, HepG2, MCF7, HL-60, 8505 C, OVCAR-3, and A549 were cultured to screen the broad-spectrum antiproliferative activity of compound 14. For above cell lines, three thousand cells per well were seeded in the 96-well plate and treated by compound 14 for 48 or 72 h at different concentrations (0, 5, 10, and 20 μM). In addition, HepG2, HEP3B, HUH6, and HUH7 were cultured to screen its antiproliferative activity against liver cancer cell lines. For these liver cancer cell lines, two thousand cells per well were seeded in the 96-well plate and treated by compound 14 for 48 h at different concentrations (0, 0.625, 1.25, 2.5, and 5 μM). Then, 10 μl of CCK8 was added into each well and cells were incubated in a humidified atmosphere of 5% CO2 at 37 °C for 4 h. The 96-well plate was measured with a microplate reader (Bio-Tek, San Diego, CA) at a wavelength of 450 nm to calculate IC50 values.
(In general: Formazan colour is commonly taken as a measure of viable cells.)

For assay [14], the system named is A549 cells. The assay can be described thus: CCK8 assay, A549 lung cancer cells. The class given is cell-based. The following applies: Homo sapiens, CCK8, control drug, read-out: IC50, antiproliferative activity. How it is done:
as §1

For assay [15], the system named is 8505 C cells. Briefly: CCK8 assay, 8505 C thyroid cancer cells. The class given is cell-based. The following applies: Homo sapiens, CCK8, control drug, read-out: IC50, antiproliferative activity. The procedure: as §1
Assay [16] relates to HL-60 cells. The assay can be described thus: CCK8 assay, HL-60 leukaemia cells. The class given is cell-based. The following applies: Homo sapiens, CCK8, control drug, read-out: IC50, antiproliferative activity. How it is done:
as §1

Assay [17] has as its system C42B cells. The assay can be described thus: CCK8 assay, C42B prostate cancer cells. The class given is cell-based. The following applies: Homo sapiens, CCK8, control drug, read-out: IC50, antiproliferative activity. The procedure:
as §1

The test system of assay [18] is MCF7 cells. The assay can be described thus: CCK8 assay, MCF7 breast cancer cells. It counts as cell-based. The following applies: Homo sapiens, CCK8, control drug, read-out: IC50, antiproliferative activity. How it is done: as §1
Assay [19] has as its system PC3 cells. The assay can be described thus: CCK8 assay, PC3 prostate cancer cells. It counts as cell-based. The following applies: Homo sapiens, PC-3, CCK8, control drug, read-out: IC50, antiproliferative activity. The procedure:
as §1

Assay [20] relates to Caco-2 cells. Briefly: CCK8 assay, Caco-2 colon cancer cells. It counts as cell-based. The following applies: Homo sapiens, CCK8, control drug, read-out: IC50, antiproliferative activity. The procedure:
as §1

In assay [21] the test system is OVCAR-3 cells. Briefly: CCK8 assay, OVCAR-3 ovarian cancer cells. The class given is cell-based. The following applies: Homo sapiens, CCK8, control drug, read-out: IC50, antiproliferative activity. How it is done: as §1
The target of assay [22] is T1, LSD1. Details: purchased Cayman Chemical (Ann Arbor, MI). The following applies: cited from earlier work.
The test system of assay [23] is glioblastoma cells. Details: method as in PMID 29683097. The following applies: cited from earlier work.
Assay [24] deals with HCT-116 cells. Details: method as in PMID 33773285. The following applies: read-out: IC50, antiproliferative activity; cited from earlier work.
Assay [25] relates to MOLP-8 cells. Details: method as in PMID 36476642. The following applies: myeloma MOLP-8 cells; read-out: IC50, antiproliferative activity; cited from earlier work.
Assay [26] deals with KMS-12-PE cells. The arrangement: method as in PMID 36476642. The following applies: myeloma KMS-12-PE cells; read-out: IC50, antiproliferative activity; cited from earlier work.

On to `O=C1CCC(NC(=O)CSc2nnc3c(=O)[nH]c4ccccc4n23)C(=O)N1` (stereo not shown) [Compound 8], for which the IC50 is 9.81 µM in assay [1], 10.1 µM in [2] (MCF-7 cell line) and 15.5 µM in assay [3].

On to `COc1cc(NC(=O)CCSc2nc3ccc(Cl)cc3c(=O)n2-c2ccc(F)cc2)cc(OC)c1OC` [Compound 13], for which, in assay [4], the anticancer effects entry is given as “exhibits extensive-spectrum anticancer effects”.

`COc1cc2nc(NCCCN(C)C)nc(NC3CCN(Cc4ccc5ccccc5c4)CC3)c2cc1OC` [Compound 2]: the IC50 in assay [5] is 0.3 µM. Further, the “expression levels of H3K4me2” value in assay [6] is listed as “increases the expression levels of H3K4me2”.

`O=C(c1ccc(OCCN2CCCCC2)cc1)c1c(-c2ccc(O)cc2)sc2cc(O)ccc12` [Raloxifene]: the “migration of ACHN cells” value in assay [7] was “inhibits migration against ACHN cells”.

On to `Cc1nc2cccc(N)c2c(=O)n1C1CCC(=O)NC1=O` (stereo not shown) [Compound 9], for which the apoptosis and proliferation result in assay [8] was “induces apoptosis and inhibits proliferation”.

Consider `C/C(=N\NC(=O)c1cccc(S(=O)(=O)N2CCN(C)CC2)c1)c1cc(Cl)ccc1O` [Seclidemstat], for which, in assay [9], the IC50 is 0.02 ± 0.01 µM. Further, the “growth of subcutaneous tumours” value in assay [10] was “inhibited the growth of subcutaneous tumours”.

Take `COc1cccc(-c2cccc(NC(=O)CCc3cccc4c3B(O)OC4)c2)c1` [Compound 12]: the “colony formation and apoptosis” value in [11] is “significantly inhibits colony formation and induces apoptosis”.

As for `O=S(=O)(Nc1ccc(Br)cc1-c1nn[nH]n1)c1ccc(-c2ccc(Cl)cc2)cc1` [Compound 3], the “synergistic effect with bortezomib” value in [12] is recorded as “displays the synergistic effect against NB cells with bortezomib”.

On to `O=c1[nH]cc(F)c(=O)[nH]1` [5-Fluorouracil], for which the IC50 in assay [13] is 9.87 µM; in assay [14], > 20 µM; in [15] it was 12.4 µM; in [16] it was 7.25 µM; in assay [17] it was 16.7 µM; in [18] it was > 20 µM. In addition, the values for the IC50 in assay [19], in assay [20] and in assay [21] were 12.3 µM, > 20 µM and > 20 µM, respectively.

Take `COc1ccc(CN(C(=O)CSC(=S)N2CCN(c3ccc(N)cc3)CC2)c2cc(OC)c(OC)c(OC)c2)cc1O` [Compound 6]: in [22], the LSD1 inhibition entry is reported as “inhibits LSD1”. In addition, the “accumulation of H3K4me1/2” value in [6] is reported as “induces the accumulation of H3K4me1/2”.

Regarding `CCCCCCCCCCCCSC(=O)CC1CC(=O)NC(=O)C1` [Compound 7], the “cell cycle and clonogenic capacity” value in assay [23] is “induces cell cycle arrest and reduces clonogenic capacity”.

For `Cc1ccc(S(=O)(=O)CCC(=O)Nc2ccc(S(N)(=O)=O)cc2)cc1` [Compound 11], the values for the IC50 in [24] and in [2] (MCF-7 cells) were 0.57 µM and 0.67 µM, respectively.

Take `O=C1CCC(CS(=O)(=O)Cc2ccccc2)C(=O)N1` (stereo not shown) [Compound 10]: the IC50 in assay [25] was 5.52 µM; in assay [26], 5.17 µM.

The values above are taken from publication PMC11843658 (Journal of Enzyme Inhibition and Medicinal Chemistry, 2025).
